Measured values published in US20250282812A1, “ANTIVIRAL NUCLEOSIDE ANALOGUE, AND PHARMACEUTICAL COMPOSITION AND USE THEREOF” (SHANGHAI INSTITUTE OF MATERIA MEDICA , CHINESE ACADEMY OF …, priority 2022, published 2025).

Tests used:
[1] = Pharmacokinetic evaluation in rats (Test Example 1); format: in vivo; conditions: rat, nucleoside X28-1 in plasma, male SD rats, single iv 10.0 mg/kg
Protocol: Male SD rats, divided into intravenous (iv) and intragastric (po) groups, were fasted for 16 h before the experiment (the intravenous group was not fasted), with free access to water, and were fed together 2 h after administration. Compound X28-1 was intravenously injected at a dose of 10.0 mg/kg (n=3), and compounds X22, X51, and X102 (n=3) were intragastrically administered in equimolar amounts to X28-1, which were 15.5 mg/kg, 16.5 mg/kg, and 16.6 mg/kg, respectively, with a vehicle of 5% DMSO+5% enthanol+40% PEG400+50% saline. 0.2-0.3 mL of blood was collected via the jugular vein at 5 min (intravenous only), 0.25 h, 0.5 h, 1.0 h, 2.0 h, 4.0 h, 6.0 h, 8.0 h, and 24 h after administration. The blood samples were transferred into heparin sodium anticoagulation tubes, gently mixed uniformly, and centrifuged at 2000 g for 10 min. Plasma was isolated and frozen in a refrigerator at −70° C. for later detection. The concentration of nucleoside X28-1 in the plasma was determined by the LC-MS-MS method and pharmacokinetic parameters were calculated.

[2] = Pharmacokinetic evaluation in rats (Test Example 2); format: in vivo; conditions: rat, nucleoside X28-1 in plasma, male SD rats, single iv 5.0 mg/kg
Protocol: A total of 12 male SD rats, divided into intravenous (IV) and intragastric (PO) groups, were fasted for 12 h before the experiment (the intravenous group was not fasted), with free access to water, and were fed together 2 h after administration. Compound X28-1 was intragastrically administered at a dose of 10.0 mg/kg (n=3) and intravenously injected at a dose of 5.0 mg/kg (n=3), and both compound X52 and compound X55 were intragastrically administered at a dose of 18.0 mg/kg (n=3), with a vehicle of 5% DMSO+5% enthanol+40% PEG400+50% saline. For the intravenous group, 0.2-0.3 mL of blood was collected via the jugular vein at 5 min, 0.25 h, 0.5 h, 1.0 h, 2.0 h, 4.0 h, 8.0 h, and 24.0 h after administration, and for the intragastric group, at 5 min, 0.5 h, 1.0 h, 2.0 h, 4.0 h, 6.0 h, 8.0 h, and 24.0 h after administration. The blood samples were transferred into heparin sodium anticoagulation tubes, gently mixed uniformly, and centrifuged at 2000 g for 10 min. Plasma was isolated and frozen in a refrigerator at −70° C. for later detection. The concentration of nucleoside X28-1 in the plasma was determined by the LC-MS-MS method and pharmacokinetic parameters were calculated.

[3] = Pharmacokinetic evaluation in cynomolgus monkeys (Test Example 5); format: in vivo; conditions: cynomolgus monkey, nucleoside X28-1 in plasma, male cynomolgus monkeys, single iv 1.0 mg/kg
Protocol: Male cynomolgus monkeys were fasted for 12 h before intragastric administration, with free access to water, and were fed together 2 h after administration. X28-1 was intravenously administered at a dose of 1.0 mg/kg (n=3) and intragastrically administered at a dose of 5.0 mg/kg (n=3), and X219 hydrochloride was intragastrically administered at a dose of 10.7 mg/kg (n=3), with a vehicle for the compounds of 5% DMSO+5% enthanol+40% PEG400+50% saline. 0.5 mL of blood was collected via the forelimb vein at 5 min (intravenous only), 0.25 h, 0.5 h, 1.0 h, 2.0 h, 4.0 h, 6.0 h, 8.0 h, and 24.0 h after administration. The blood samples were transferred into heparin sodium anticoagulation tubes, gently shaken and mixed uniformly, put on ice, and immediately centrifuged (4° C., 2000 g, 10 min). After centrifugation, 100 μL of plasma was accurately pipetted and added to a plastic tube containing 400 μL of methanol solution with an internal standard, temporarily stored on dry ice after being vortexed, and then stored in an ultra-low temperature refrigerator for later detection. The concentration of nucleoside X28-1 in the plasma was determined by the LC-MS-MS method and pharmacokinetic parameters were calculated.

[4] = tested on: influenza virus (IFV) A/California/07/2009 (H1N1) pdm09 strain; assay: In vitro activity against influenza virus (CPE, CCK8, MDCK cells); format: cell-based; conditions: 120 h, read-out: IFV (MDCK) EC50
[5] = tested on: respiratory syncytial virus (RSV) A long strain; assay: In vitro activity against respiratory syncytial virus (CPE, CCK8, HEp-2 cells); format: cell-based; conditions: human respiratory syncytial virus, 120 h, MOI=0.02, 5 days
SFTSV-Nluc [6] = assay: microbe, parasite or virus in culture; format: cell-based, severe fever with thrombocytopenia syndrome virus (SFTSV); conditions: Severe fever with thrombocytopenia syndrome virus, Vero, 48 h
[7] = tested on: wild-type SFSV virus (SFTSV-WT); format: in vivo; conditions: A129 mice infected with SFTSV-WT; X28-1 20 mpk intragastric once daily Day 0 to Day 6
SFTSV-Nluc [8] = tested on: SFTSV-Nluc; design: species or system A129 mice; conditions: mouse
[9] = tested on: respiratory syncytial virus (RSV A2); assay: In vivo efficacy for respiratory syncytial virus (RSV) in mice; conditions: for reduction in the pulmonary viral load compared with the vehicle group: Day 4; for change in the body weight: RSV A2-infected BALB/C mice, X219 hydrochloride 20 mpk or X28-1 10 mpk intragastric once daily
in vitro = conditions: dog
[10] = Cytotoxicity in HEp-2 cells (CCK8); conditions: human
[11] = Stability test of compounds in solutions at different pH values
[12] = tested on: influenza virus Influenza A/PR/8/34 (PR8); assay: In vivo efficacy for influenza virus in mice; design: species or system Balb/C mice
[13] = Solubility of compounds in water; conditions: thermodynamic from solid
[14] = buffered saline solution pH 4.0, 3 h
[15] = buffered saline solution pH 4.0, 6 h
[16] = buffered saline solution pH 4.0, 9 h
[17] = buffered saline solution pH 4.0, 12 h
[18] = buffered saline solution pH 4.0, 15 h
[19] = buffered saline solution pH 4.0, 18 h
[20] = buffered saline solution pH 4.0, 21 h
[21] = buffered saline solution pH 4.0, 24 h
[22] = buffered saline solution pH 6.8, 3 h
[23] = buffered saline solution pH 6.8, 6 h
[24] = buffered saline solution pH 6.8, 9 h
[25] = buffered saline solution pH 6.8, 12 h
[26] = buffered saline solution pH 6.8, 15 h
[27] = buffered saline solution pH 6.8, 18 h
[28] = buffered saline solution pH 6.8, 21 h
[29] = buffered saline solution pH 6.8, 24 h

O=c1ccn([C@@H]2O[C@](F)(CO)[C@@H](O)[C@H]2O)c(=O)[nH]1 [Compound X28-1, reference compound]
AUC(0-inf) [1]: 22100 ng·h/mL
AUC(0-t) [1]: 20000 ng·h/mL
Cmax [1]: 8080 ng/mL
half-life [1]: 6.9 h
MRT inf ([1]; read-out: MRT0-∞): 8.33 h
AUC(0-inf) [2]: 8690 ng·h/mL
AUC(0-t) [2]: 8290 ng·h/mL
Cmax [2]: 2620 ng/mL
half-life [2]: 6.09 h
MRT inf ([2]; read-out: MRT0-∞): 6.89 h
AUC(0-inf) [3]: 3720 ng·h/mL
AUC(0-t) [3]: 3610 ng·h/mL
half-life [3]: 5.38 h
MRT inf ([3]; read-out: MRT0-∞): 4.21 h
EC50 [4]: < 0.37 µM
EC50 [5]: 6.06 µM
EC50 (SFTSV-Nluc [6]): 0.8 µM
inhibition at 10 µM (SFTSV-Nluc [6]; read-out: Inhibition rate (10 μM)): 95.3%
change in the body weight [7]: no significant change
survival rate [7]: 100%
in vivo fluorescence imaging, fluorescence intensity on ventral and dorsal side (SFTSV-Nluc [8]): negligible fluorescence intensity
change in the body weight (SFTSV-Nluc [8]; in vivo, 20 mg/kg): no significant change
in vitro imaging of spleen, kidneys, liver and intestine: fluorescence intensity compared with the SFTSV-Nluc vehicle group (SFTSV-Nluc [8]; in vivo, 20 mg/kg): significantly weaker
spleen/body weight ratio and kidney/body weight ratio (SFTSV-Nluc [8]; in vivo, 20 mg/kg): consistent with those in the blank control group
survival rate (SFTSV-Nluc [8]; in vivo, 20 mg/kg): 100%
viral titer and copy number in the spleen and kidney compared with the SFTSV-Nluc vehicle group (SFTSV-Nluc [8]; in vivo, 20 mg/kg): significantly reduced
reduction in the pulmonary viral load compared with the vehicle group ([9]; 10 mpk intragastric once daily): about 0.4 log10
change in the body weight [9]: began to show an increase in the body weight on Day 3
CC50 (in vitro): > 10 µM
CC50 at 5 days [10]: > 10 µM
Content reduction (%) [11, 14]: 5.7%
Content reduction (%) [11, 15]: 12.2%
Content reduction (%) [11, 16]: 17.5%
Content reduction (%) [11, 17]: 22.2%
Content reduction (%) [11, 18]: 26.9%
Content reduction (%) [11, 19]: 30.3%
Content reduction (%) [11, 20]: 35.9%
Content reduction (%) [11, 21]: 40.1%
Content reduction (%) [11, 22]: 8.0%
Content reduction (%) [11, 23]: 15.3%
Content reduction (%) [11, 24]: 22.0%
Content reduction (%) [11, 25]: 28.3%
Content reduction (%) [11, 26]: 33.4%
Content reduction (%) [11, 27]: 38.0%
Content reduction (%) [11, 28]: 42.9%
Content reduction (%) [11, 29]: 46.9%

CC(=O)OC[C@@]1(F)O[C@@H](n2ccc(=O)n(COC(=O)c3cccnc3)c2=O)[C@H](OC(C)=O)[C@@H]1OC(C)=O.Cl [X219 hydrochloride]
pulmonary viral load compared with the PR8+vehicle group ([12]; […], X219 hydrochloride 10, 20, 30 mpk intragastric once daily, Day 4): significantly reduced
body weight after 4 days of infection compared with the initial body weight ([12]; […], intragastric once daily Day 0-3, X219 hydrochloride 10, 20 and 30 mpk, favipiravir 200 mpk): did not change significantly
reduction of pulmonary viral load compared with the PR8+vehicle group ([12]; dose 20 mg/kg intragastric once daily, Day 4): greater than 4 log10
reduction of pulmonary viral load compared with the PR8+vehicle group ([12]; dose 30 mg/kg intragastric once daily, Day 4): greater than 4 log10
levels of inflammatory factors (IL-6, IL-8, IL-1B, TNF-α, ISG-15, and TNF-1B) in the lungs compared with the PR8+vehicle group ([12]; lung tissue, Day 4): significantly lower
inhibitory effect on virus compared with the positive drug favipiravir (200 mpk) ([12]; pulmonary viral load, Day 4): significantly better
reduction in the pulmonary viral load compared with the vehicle group ([9]; 20 mpk intragastric once daily): about 0.7 log10
change in the body weight [9]: began to show an increase in the body weight on Day 3
solubility at 15 min [13]: 4740 µg/mL
Content reduction (%) [11, 14]: 0.24%
Content reduction (%) [11, 15]: 0.28%
Content reduction (%) [11, 16]: 0.34%
Content reduction (%) [11, 17]: 0.55%
Content reduction (%) [11, 18]: 0.64%
Content reduction (%) [11, 19]: 0.72%
Content reduction (%) [11, 20]: 0.73%
Content reduction (%) [11, 21]: 0.87%
Content reduction (%) [11, 22]: 0.98%
Content reduction (%) [11, 23]: 2.03%
Content reduction (%) [11, 24]: 3.09%
Content reduction (%) [11, 25]: 4.10%
Content reduction (%) [11, 26]: 5.13%
Content reduction (%) [11, 27]: 6.13%
Content reduction (%) [11, 28]: 7.07%
Content reduction (%) [11, 29]: 8.02%
